Assay results taken from ChEMBL document CHEMBL1156794, “Synthesis and antimicrobial evaluation of amphiphilic neamine derivatives” (J Med Chem, 2010).
Values after ≈ are worked out from the molar mass of the structure shown.

Assays:
Pseudomonas aeruginosa [1] = test: Inhibition of protein synthesis in Pseudomonas aeruginosa ATCC 27853 assessed as decrease in incorporation of L-[4,5-3H]leucine at 10 times MIC by liquid scintillation counter relative to control; format: functional
Pseudomonas aeruginosa [2] = test: Inhibition of protein synthesis in Pseudomonas aeruginosa ATCC 27853 assessed as decrease in incorporation of L-[4,5-3H]leucine at 5 times MIC by liquid scintillation counter relative to control; format: functional
Escherichia coli [3] = test: Antibacterial activity against ANT2'-2a expressing Escherichia coli L58058.1 after 24 hrs by geometric microdilution method; format: functional; conditions: L58058.1, 24 h
Pseudomonas aeruginosa [4] = test: Antibacterial activity against MexAB expressing Pseudomonas aeruginosa PA21 after 24 hrs by geometric microdilution method; format: functional; conditions: PA21, 24 h
Escherichia coli [5] = test: Antibacterial activity against AAC6'-2b expressing Escherichia coli PAZ505H8101 after 24 hrs by geometric microdilution method; format: functional; conditions: PAZ505H8101, 24 h
Escherichia coli [6] = test: Antibacterial activity against R-methylase expressing Escherichia coli 06AB003 after 24 hrs by geometric microdilution method; format: functional; conditions: 06AB003, 24 h
Pseudomonas aeruginosa [7] = test: Antibacterial activity against MexCD expressing Pseudomonas aeruginosa PA01 after 24 hrs by geometric microdilution method; format: functional; conditions: PA01, 24 h
Klebsiella pneumoniae = test: Antibacterial activity against Klebsiella pneumoniae ATCC 700603 after 24 hrs by geometric microdilution method; format: functional; conditions: ATCC 700603, 24 h
Acinetobacter lwoffii [8] = test: microbe, parasite or virus in culture; conditions: ATCC 17925, 24 h
Description: Antibacterial activity against Acinetobacter lwoffii ATCC 17925 after 24 hrs by geometric microdilution method

Pseudomonas aeruginosa [9] = test: Antibacterial activity against AAC6'-2a expressing Pseudomonas aeruginosa F03 after 24 hrs by geometric microdilution method; format: functional; conditions: F03, 24 h
Pseudomonas aeruginosa [10] = test: Antibacterial activity against MexXY expressing Pseudomonas aeruginosa PA22 after 24 hrs by geometric microdilution method; format: functional; conditions: PA22, 24 h
Klebsiella aerogenes = test: Antibacterial activity against R-methylase expressing Enterobacter aerogenes 06AB008 after 24 hrs by geometric microdilution method; format: functional; conditions: 06AB008, 24 h
Pseudomonas aeruginosa [11] = test: Antibacterial activity against Pseudomonas aeruginosa PAO1 after 24 hrs by geometric microdilution method; format: functional; conditions: PAO1, 24 h
Pseudomonas aeruginosa [12] = test: Antibacterial activity against MexAB, MexCD, MexEF, MexXY, TriABC deleted Pseudomonas aeruginosa PA406 after 24 hrs by geometric microdilution method; format: functional; conditions: PA406, 24 h
Escherichia coli [13] = test: microbe, parasite or virus in culture; conditions: ATCC 25922, 24 h
Description: Antibacterial activity against Escherichia coli ATCC 25922 after 24 hrs by geometric microdilution method

Citrobacter amalonaticus = test: Antibacterial activity against R-methylase expressing Citrobacter amalonaticus 06AB0010 after 24 hrs by geometric microdilution method; format: functional; conditions: 06AB0010, 24 h
Pseudomonas aeruginosa [14] = test: Antibacterial activity against Pseudomonas aeruginosa ATCC 27853 after 24 hrs by geometric microdilution method; format: functional; conditions: ATCC 27853, 24 h
Pseudomonas aeruginosa [15] = test: Antibacterial activity against TriABC expressing MexAB, MexCD, MexEF, MexXY deleted Pseudomonas aeruginosa PA405 after 24 hrs by geometric microdilution method; format: functional; conditions: PA405, 24 h
Acinetobacter lwoffii [16] = test: Antibacterial activity against […] expressing Acinetobacter lwoffii AI.88-483 after 24 hrs by geometric microdilution method; format: functional; conditions: AI.88-483, 24 h
Pseudomonas aeruginosa [17] = test: Antibacterial activity against MexEF expressing Pseudomonas aeruginosa PA03 after 24 hrs by geometric microdilution method; format: functional; conditions: PA03, 24 h
Pseudomonas aeruginosa [18] = test: Antibacterial activity against MexXY expressing Pseudomonas aeruginosa PT629 after 24 hrs by geometric microdilution method; format: functional; conditions: PT629, 24 h
Staphylococcus aureus [19] = test: Antibacterial activity against aminoglycoside-3'-O-phosphoryltransferase expressing Staphylococcus aureus after 24 hrs by geometric microdilution method; format: functional
Staphylococcus aureus [20] = test: Antibacterial activity against aminoglycoside-6'-N-acetyltransferase/2''-O-phosphoryltransferase expressing Staphylococcus aureus after 24 hrs by geometric microdilution method; format: functional
Staphylococcus aureus [21] = test: Antibacterial activity against vancomycin-resistant Staphylococcus aureus VRS-2 after 24 hrs by geometric microdilution method; format: functional; conditions: VRS-2, 24 h
Pseudomonas aeruginosa [22] = test: Inhibition of protein synthesis in Pseudomonas aeruginosa ATCC 27853 assessed as decrease in incorporation of L-[4,5-3H]leucine at MIC by liquid scintillation counter relative to control; format: functional
Staphylococcus aureus [23] = test: Antibacterial activity against methicillin-resistant Staphylococcus aureus ATCC 33592 clinical isolate after 24 hrs by geometric microdilution method; format: functional; conditions: ATCC 33592, 24 h
Staphylococcus aureus [24] = test: Antibacterial activity against MsrA pump expressing Staphylococcus aureus after 24 hrs by geometric microdilution method; format: functional
Nucleic Acid = test: Binding affinity to bacterial rRNA A site at 200 uM by isothermal titration calorimetry; format: nucleic-acid assay
Staphylococcus aureus [25] = test: Antibacterial activity against aminoglycoside-4'-O-phosphoryltransferase expressing Staphylococcus aureus after 24 hrs by geometric microdilution method; format: functional
Staphylococcus aureus [26] = test: Antibacterial activity against Staphylococcus aureus ATCC 25923 after 24 hrs by geometric microdilution method; format: functional; conditions: ATCC 25923, 24 h
Staphylococcus aureus [27] = test: Antibacterial activity against NorA pump expressing Staphylococcus aureus after 24 hrs by geometric microdilution method; format: functional

Compound	inhibition (INH) (Pseudomonas aeruginosa [1])	MIC (Escherichia coli [3])	MIC (Pseudomonas aeruginosa [4])	MIC (Escherichia coli [5])	MIC (Escherichia coli [6])	MIC (Pseudomonas aeruginosa [7])	MIC (Klebsiella pneumoniae)	MIC (Acinetobacter lwoffii [8])	MIC (Pseudomonas aeruginosa [9])	MIC (Pseudomonas aeruginosa [10])	MIC (Klebsiella aerogenes)	MIC (Pseudomonas aeruginosa [11])	MIC (Pseudomonas aeruginosa [12])	MIC (Escherichia coli [13])	MIC (Citrobacter amalonaticus)	MIC (Pseudomonas aeruginosa [14])	MIC (Pseudomonas aeruginosa [15])	MIC (Acinetobacter lwoffii [16])	MIC (Pseudomonas aeruginosa [17])	MIC (Pseudomonas aeruginosa [18])	other results
C[C@H]1[C@H](NC(=O)/C(=N\OC(C)(C)C(=O)O)c2csc(N)n2)C(=O)N1S(=O)(=O)O [AZTREONAM]	95%																				inhibition (INH) (Pseudomonas aeruginosa [2]): 30%
NCC[C@H](O)C(=O)N[C@@H]1C[C@H](N)[C@@H](O[C@H]2O[C@H](CN)[C@@H](O)[C@H](O)[C@H]2O)[C@H](O)[C@H]1O[C@H]1O[C@H](CO)[C@@H](O)[C@H](N)[C@H]1O [AMIKACIN]		2 µg/mL (≈ 3.42 µM)	2 µg/mL (≈ 3.42 µM)	32 µg/mL (≈ 54.6 µM)	> 128 µg/mL	2 µg/mL (≈ 3.42 µM)	0.5 µg/mL (≈ 0.854 µM)	0.5 µg/mL (≈ 0.854 µM)	4 µg/mL (≈ 6.83 µM)	8 µg/mL (≈ 13.7 µM)	> 128 µg/mL	2 µg/mL (≈ 3.42 µM)	1 µg/mL (≈ 1.71 µM)	4 µg/mL (≈ 6.83 µM)	> 128 µg/mL	2 µg/mL (≈ 3.42 µM)	0.5 µg/mL (≈ 0.854 µM)	> 128 µg/mL	2 µg/mL (≈ 3.42 µM)	8 µg/mL (≈ 13.7 µM)	
NC[C@@H]1O[C@H](O[C@H]2[C@@H](O)[C@H](O[C@@H]3[C@@H](O)[C@H](N)C[C@H](N)[C@H]3O[C@H]3O[C@H](CN)[C@@H](O)[C@H](O)[C@H]3N)O[C@@H]2CO)[C@H](N)[C@@H](O)[C@@H]1O [FRAMYCETIN]	40%	32 µg/mL (≈ 52.1 µM)	4 µg/mL (≈ 6.51 µM)	4 µg/mL (≈ 6.51 µM)		8 µg/mL (≈ 13 µM)	16 µg/mL (≈ 26 µM)	0.5 µg/mL (≈ 0.813 µM)	128 µg/mL (≈ 208 µM)	32 µg/mL (≈ 52.1 µM)		4 µg/mL (≈ 6.51 µM)	4 µg/mL (≈ 6.51 µM)	2 µg/mL (≈ 3.25 µM)		64 µg/mL (≈ 104 µM)	2 µg/mL (≈ 3.25 µM)	> 128 µg/mL	4 µg/mL (≈ 6.51 µM)	32 µg/mL (≈ 52.1 µM)	MIC (Staphylococcus aureus [19]): > 128 µg/mL; MIC (Staphylococcus aureus [20]): 1 µg/mL (≈ 1.63 µM); MIC (Staphylococcus aureus [21]): 128 µg/mL (≈ 208 µM); inhibition (INH) (Pseudomonas aeruginosa [22]): 40%; MIC (Staphylococcus aureus [23]): > 128 µg/mL; MIC (Staphylococcus aureus [24]): 2 µg/mL (≈ 3.25 µM); Kd (Nucleic Acid): 1.55 µM; MIC (Staphylococcus aureus [25]): 32 µg/mL (≈ 52.1 µM); MIC (Staphylococcus aureus [26]): 2 µg/mL (≈ 3.25 µM); MIC (Staphylococcus aureus [27]): 1 µg/mL (≈ 1.63 µM)
NC[C@H]1O[C@H](O[C@H]2[C@H](O)[C@@H](O[C@H]3O[C@H](CO)[C@@H](O)[C@H](N)[C@H]3O)[C@H](N)C[C@@H]2N)[C@H](N)C[C@@H]1O [TOBRAMYCIN]		64 µg/mL (≈ 137 µM)	0.5 µg/mL (≈ 1.07 µM)	32 µg/mL (≈ 68.4 µM)	> 128 µg/mL	0.5 µg/mL (≈ 1.07 µM)	4 µg/mL (≈ 8.56 µM)	0.5 µg/mL (≈ 1.07 µM)	128 µg/mL (≈ 274 µM)	1 µg/mL (≈ 2.14 µM)	> 128 µg/mL	0.5 µg/mL (≈ 1.07 µM)	< 0.25 µg/mL	0.5 µg/mL (≈ 1.07 µM)	> 128 µg/mL	0.5 µg/mL (≈ 1.07 µM)	< 0.25 µg/mL	1 µg/mL (≈ 2.14 µM)	< 0.25 µg/mL	1 µg/mL (≈ 2.14 µM)	
NC[C@H]1O[C@H](O[C@H]2[C@H](O)[C@@H](OCc3ccc4ccccc4c3)[C@H](N)C[C@@H]2N)[C@H](N)[C@@H](OCc2ccc3ccccc3c2)[C@@H]1OCc1ccc2ccccc2c1	60%	4 µg/mL (≈ 5.38 µM)	4 µg/mL (≈ 5.38 µM)	4 µg/mL (≈ 5.38 µM)	4 µg/mL (≈ 5.38 µM)	4 µg/mL (≈ 5.38 µM)	16 µg/mL (≈ 21.5 µM)		8 µg/mL (≈ 10.8 µM)	4 µg/mL (≈ 5.38 µM)	4 µg/mL (≈ 5.38 µM)	8 µg/mL (≈ 10.8 µM)	4 µg/mL (≈ 5.38 µM)		4 µg/mL (≈ 5.38 µM)	8 µg/mL (≈ 10.8 µM)	4 µg/mL (≈ 5.38 µM)	32 µg/mL (≈ 43.1 µM)	4 µg/mL (≈ 5.38 µM)	4 µg/mL (≈ 5.38 µM)	Kd (Nucleic Acid): 10 µM
